This is an account of results in patent US20100204111A1 (priority 2007, published 2010).

The subject of one test is HIV-1IIIB. The test can be described thus: HIV-1 antiviral assay in CEM-SS cells. The class given is cell-based.
In another test the test system is HCMV strain AD169. The class given is cell-based. As to conditions: MRC-5 cells.
Test [1] relates to hepatitis B virus (HBV) ayw strain. The class given is cell-based. As to conditions: 10 micrograms per ml; HepG2-2.2.15 cells; six days.
The subject of test [2] is Human Peripheral Blood Mononuclear Cells (PBMC), B cell proliferation. The test can be described thus: B Cell Proliferation Assay (SAC plus Interleukin-2, 3H-thymidine). As to conditions: 10 micrograms per ml; SAC plus Interleukin-2 stimulated PBMC; combination: 0.95 mole peptide 1 and 1.05 mole peptide 2. It counts as cell-based.
Method: Human Peripheral Blood Mononuclear Cells (PBMC) were obtained from normal human donors. […] 10^5/well PBMC were plated in 96-well microtiter plates and assayed in duplicate with the peptides. […] At the end of incubation time, the plates were harvested and the cells counted by liquid scintillation for the incorporation of ^3H-thymidine as a measure of B cell proliferation.
The subject of test [3] is Tumor Necrosis Factor-α (TNF-α). The test can be described thus: Th1/Th2 Cytokine Profiling Assay: TNF-α. It counts as cell-based, Balb/c mice. The settings on record: 10 micrograms per ml; Ovalbumin-restimulated Balb/c spleen cells; 72 hours.
Method: (§1) On day 50, spleens of the mice were harvested (3 weeks after last boost with Ovalbumin). […] Thereafter, additional Ovalbumin was added to the cells at 10 micrograms/ml for in vitro restimulation of the cells. 72 hours later, cell supernatants were harvested and assayed using the Becton Dickinson Mouse Th1/Th2 Cytokine CBA Kit. This kit can be used to measure Interleukin-2 (IL-2), Interleukin-4 (IL-4), Interleukin-5 (IL-5), Interferon-γ (IFN-γ), and Tumor Necrosis Factor-α (TNF-α) protein levels in a single sample.
The test system of another test is Interferon-γ (IFN-γ). The test can be described thus: Th1/Th2 Cytokine Profiling Assay: IFN-γ. It counts as cell-based, Balb/c mice. The settings on record: 10 micrograms per ml; Ovalbumin-restimulated Balb/c spleen cells; 72 hours.
The next test has as its system Interleukin-2 (IL-2). The test can be described thus: Th1/Th2 Cytokine Profiling Assay: IL-2. It counts as cell-based, Balb/c mice. The settings on record: 10 micrograms per ml; Ovalbumin-restimulated Balb/c spleen cells; 72 hours.
A further test deals with Interleukin-4 (IL-4). Kind of test: Th1/Th2 Cytokine Profiling Assay: IL-4. The class given is cell-based, Balb/c mice. The settings on record: 10 micrograms per ml; Ovalbumin-restimulated Balb/c spleen cells; 72 hours.
A further test has as its system Interleukin-5 (IL-5). Kind of test: Th1/Th2 Cytokine Profiling Assay: IL-5. The class given is cell-based, Balb/c mice. As to conditions: 10 micrograms per ml; Ovalbumin-restimulated Balb/c spleen cells; 72 hours.
For test [4], the system named is Primary Human endothelial cells (HUVEC). Kind of test: Endothelial Cell Migration Assay. The class given is cell-based. As to conditions: 10 micrograms per ml, 22 hours, combination peptide 1:peptide 2 0.95 mole:1.05 mole.
Method: Primary Human endothelial cells (HUVEC) were seeded in insert chambers with 3 micrometer pore size of multi-transwell plate for 6 hours at 37° C. in Endothelial Cell Basal Medium (EBM) supplemented with 0.1% bovine serum albumin. […] Images of 3 fields per insert were taken and the number of migrated cells per field were quantified using the ImageProPlus software. Data were analyzed for the average number of the migrated cells and standard deviation of six data points for each treatment condition. […] Statistic p values were computed using the Student's t-test.
A further test concerns HUVEC. Kind of test: Endothelial Tube Formation Assay. The class given is cell-based, human. The settings on record: 10 micrograms per ml, 20 hours, combination peptide 1:peptide 2 0.95 mole:1.05 mole.

Bridges are numbered along the chain shown (N, C = ends). Where no end group is shown, it is not given here. [ ]: non-standard residue; d: D form. Nle = CCCC[C@H](N)C(=O)O

Method for Interferon-γ (IFN-γ): as §1
Method for Interleukin-2 (IL-2): as §1
Method for Interleukin-4 (IL-4): as §1
Method for Interleukin-5 (IL-5): as §1

Turning to `Cc1cn([C@H]2C[C@H](N=[N+]=[N-])[C@@H](CO)O2)c(=O)[nH]c1=O` [AZT], in the test on HIV-1IIIB, the “antiviral activity (positive control compounds)” value is on record as “expected levels of antiviral activity”.

`Nc1nc(O)c2ncn(COC(CO)CO)c2n1` [Ganciclovir, reference compound]: the “antiviral activity (positive control compound)” value in the test with HCMV strain AD169 (positive control, HCMV AD169) is on record as “expected levels of antiviral activity”.

As to `CC(C)(C)NC(=O)[C@@H]1CN(Cc2cccnc2)CCN1C[C@@H](O)C[C@@H](Cc1ccccc1)C(=O)N[C@H]1c2ccccc2C[C@H]1O` [indinavir], the “antiviral activity (positive control compounds)” value in the test with HIV-1IIIB is given as “expected levels of antiviral activity”.

For the molecule “Tyr-Gly-Gly-Phe-Met-Thr-Ser-Glu-Lys-Ser-Gln-Thr-Pro-Leu-Val-Thr-Leu-Phe-Lys-Asn-Ala-Ile-Ile-Lys-Asn-Ala-Tyr-Lys-Lys-Gly-Glu-OH [Peptide 2]”, the “inhibition of HBV replication on tested liver cells” value in test [1] is “no effect”. The “inhibition of HCMV plaque formation as compared to the virus control” value in the test with HCMV strain AD169 (10 micrograms per ml, 7-10 days) is recorded as “did not inhibit”. Besides, in [2], the “induction of the proliferation of specifically stimulated human B-cells” value is reported as 22.7%. The “TNF-a spleen cells; TH1 response (% of control)” value in test [3] is 110.7 % of control. Besides, in the test on Interferon-γ (IFN-γ), the “IFNγ spleen cells; TH1 response (% of control)” value is 106.6 % of control. Further, in the test on Interleukin-2 (IL-2), the “IL-2 spleen cells (% of control)” value is given as 163.9 % of control. Also, the “IL-4 spleen cells; TH2 response (% of control)” value in the test with Interleukin-4 (IL-4) is 100.6 % of control. Also, the “IL-5 spleen cells; TH2 response (% of control)” value with Interleukin-5 (IL-5) is reported as 103.3 % of control. The “inhibition of the migration of human endothelial cells” value in test [4] is reported as 29%. In the test on HUVEC, the “inhibition of the tube formation of endothelial cells” value is given as 38%.

For the molecule “[dF]HLLREVLE[Nle]ARAEQLAQEAHKNRKL[Nle]EII-NH2 (lactam 19-22) [Peptide 1]”, the “induction of the proliferation of specifically stimulated human B-cells” value in test [2] is given as 11.1%. Besides, the “TNF-a spleen cells; TH1 response (% of control)” value in test [3] is reported as 120.0 % of control. Further, in the test on Interferon-γ (IFN-γ), the “IFNγ spleen cells; TH1 response (% of control)” value is 137.6 % of control. For the same molecule, the “IL-2 spleen cells (% of control)” value with Interleukin-2 (IL-2) was 210.4 % of control. Moreover, the “IL-4 spleen cells; TH2 response (% of control)” value with Interleukin-4 (IL-4) was 114.4 % of control. In addition, the “IL-5 spleen cells; TH2 response (% of control)” value with Interleukin-5 (IL-5) is given as 90.1 % of control. For the same molecule, the “inhibition of the migration of human endothelial cells” value in test [4] is given as 13%. In addition, the “inhibition of the tube formation of endothelial cells” value with HUVEC is reported as 31%.
